Data from paper PMC10076467 (EJNMMI Research, 2023).
Where two headings read alike, the source gives them in different places.

Assays:
GluN2B receptors [1] = target: T1, GluN2B receptors (Rattus norvegicus, UniProt P35439+Q00960); test: ED50 for pre-blocking of GluN2B radioligand uptake in rat whole brain (PET); format: in vivo; details: for ED50 in rat whole brain in vivo ^11C-(−)-NR2B-Me / ED50 in rat whole brain in vivo ^11C-(+)-NR2B-Me: pre-blocking, AUC 20-90 min; for ED50 in rat whole brain in vivo ^11C-(−)-NR2B-Me: radioligand ^11C-(−)-NR2B-Me; for effect of pre-administration on whole rat brain radioactivity uptake of GluN2B radioligands: ^11C-NR2B-Me enantiomers (also ^11C-(S)-NR2B-SMe); for ED50 in rat whole brain in vivo ^11C-(+)-NR2B-Me: radioligand ^11C-(+)-NR2B-Me
T1 construct: from tissue; host or cells: brain of living male rats (PET imaging)
Procedure: (§1) For radioligand injection, a polyethylene catheter (PE 10) was inserted into the penile vein of a male rat and then secured with tissue adhesive and tape. […] Body temperature was monitored with a rectal probe. All PET scans were performed on a microPET Focus 220 scanner (Siemens Medical Solutions) (7,8). Data were acquired in listmode and reconstructed with Fourier rebinning + 2D filtered backprojection. A transmission scan was acquired before radioligand injection for attenuation correction. Dynamic scanning began at the time of a one-minute intravenous bolus injection of the radioligand under study (55 ± 19 MBq; volume 0.2 to 1.0 mL). The injected mass dose was 3 ± 1 nmol/kg. Challenge agents were administered intravenously 10 minutes before the radioligand for pre-blocking studies or 10 minutes after the radioligand for displacement studies. Tomographic images were analyzed with pixel-wise modeling computer software (PMOD 2.6; PMOD Group). Regions-of-interest in the brain were delineated, and time-activity curves calculated as SUV versus time.
(§2) Pre-blocking and displacement experiments were performed to assess radioligand target engagement and radioligand selectivity in vivo. […] Areas-under the curve (AUCs) from time-activity curves between 20 and 90 minutes were calculated for each radioligand. AUCs obtained from the same production of radioligand were scaled to the value (or mean value) for the baseline experiment to give relative values (relative AUC20–90 min). […] Where data permitted, the dose-response curves were fitted with GraphPad Prism software (version 8.1.1; GraphPad) to estimate the ED50 values. A dummy value of 100 pmol per kg body weight was used for zero concentration of the challenge agent in the construction of these dose-response curves. Numerical data are expressed as mean ± S.D. for n>2, or as mean and range for n = 2.

σ1 receptor = details: cited from earlier work
σ2 receptor = details: cited from earlier work
[2] = rat, cited from earlier work
GluN2B receptors [3] = target: T1, GluN2B receptors; test: PET displacement / pre-blocking of ^11C-NR2B-Me radioligands with Ro-25-6981, Lassen plots; format: in vivo; details: for BPND (SUVBL/SUVND−1), whole rat brain: Lassen (SUV) plots; for non-displaceable binding (X-axis intercept of Lassen plots): rat brain, pre-blocking with 0.25 mg/kg Ro-25-6981, on average; for displacement from peak value at 90 min: rat whole brain, Ro-25-6981 0.25 mg/kg i.v. 10 min after radioligand, n = 1
Procedure: as §1, §2

[4] = set-up: method as in PMID 30030340; details: rhesus monkeys, PET; cited from earlier work
[5] = PET, sixty minutes after injection
[6] = 45 min after intravenous injection
[7] = 30 min after intravenous injection

T1 sequence (Q00960 27-1482, other chains not shown): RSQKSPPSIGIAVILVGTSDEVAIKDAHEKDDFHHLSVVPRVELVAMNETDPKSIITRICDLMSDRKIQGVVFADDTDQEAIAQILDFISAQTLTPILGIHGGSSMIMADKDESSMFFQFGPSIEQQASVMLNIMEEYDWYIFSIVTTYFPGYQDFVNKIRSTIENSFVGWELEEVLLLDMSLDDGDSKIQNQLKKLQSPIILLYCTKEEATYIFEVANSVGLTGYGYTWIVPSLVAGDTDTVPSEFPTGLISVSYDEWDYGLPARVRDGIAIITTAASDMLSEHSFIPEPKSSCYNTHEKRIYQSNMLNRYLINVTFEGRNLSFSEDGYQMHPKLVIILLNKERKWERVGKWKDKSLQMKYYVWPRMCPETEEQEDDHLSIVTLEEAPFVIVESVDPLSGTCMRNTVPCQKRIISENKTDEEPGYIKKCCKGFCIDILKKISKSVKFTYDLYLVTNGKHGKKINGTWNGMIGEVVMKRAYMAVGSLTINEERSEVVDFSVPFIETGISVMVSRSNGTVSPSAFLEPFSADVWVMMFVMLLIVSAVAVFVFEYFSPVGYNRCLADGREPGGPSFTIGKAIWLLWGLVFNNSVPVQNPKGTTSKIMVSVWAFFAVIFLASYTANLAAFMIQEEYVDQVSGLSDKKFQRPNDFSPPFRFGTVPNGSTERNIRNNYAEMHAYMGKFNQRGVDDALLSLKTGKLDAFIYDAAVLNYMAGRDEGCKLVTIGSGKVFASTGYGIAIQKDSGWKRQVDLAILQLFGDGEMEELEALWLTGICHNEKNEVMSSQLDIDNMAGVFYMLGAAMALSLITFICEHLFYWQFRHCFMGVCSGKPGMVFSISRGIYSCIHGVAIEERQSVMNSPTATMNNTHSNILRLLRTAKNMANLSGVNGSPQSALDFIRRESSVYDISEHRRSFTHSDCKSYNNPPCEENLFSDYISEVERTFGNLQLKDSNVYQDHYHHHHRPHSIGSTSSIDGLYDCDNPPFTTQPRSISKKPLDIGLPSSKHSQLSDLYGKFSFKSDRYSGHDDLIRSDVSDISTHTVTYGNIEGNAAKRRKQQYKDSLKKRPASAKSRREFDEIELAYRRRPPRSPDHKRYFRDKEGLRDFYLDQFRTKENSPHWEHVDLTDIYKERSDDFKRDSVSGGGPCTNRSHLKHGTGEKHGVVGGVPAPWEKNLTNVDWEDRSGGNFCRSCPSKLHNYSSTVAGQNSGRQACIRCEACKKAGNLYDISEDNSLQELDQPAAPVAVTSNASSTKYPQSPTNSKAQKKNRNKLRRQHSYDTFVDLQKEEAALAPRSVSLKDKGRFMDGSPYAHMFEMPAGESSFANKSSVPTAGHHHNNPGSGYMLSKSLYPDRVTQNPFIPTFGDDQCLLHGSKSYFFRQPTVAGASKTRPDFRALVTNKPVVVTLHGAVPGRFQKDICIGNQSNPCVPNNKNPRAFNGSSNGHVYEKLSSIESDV

## COC(=O)C1(c2ccc(C)cc2)CC1CN1CCC(O)(c2ccccc2)CC1 (racemic) [( ±)-PPCC]
GluN2B receptors [1]
  ED50 in rat whole brain in vivo ^11C-(−)-NR2B-Me: > 1000 nmol/kg
σ1 receptor; reference radioligand ^3H-pentazocine, ref 45, read-out: Ki for σ1
  Ki: 1.5 nM
σ2 receptor; reference radioligand ^3H-DTG, ref 45, read-out: Ki for σ2
  Ki: 50.8 nM

## CC(C)=CCN1CC[C@]2(C)c3cc(O)ccc3C[C@H]1[C@H]2C [(+)-Pentazocine]
GluN2B receptors [1]
  ED50 in rat whole brain in vivo ^11C-(−)-NR2B-Me: > 1000 nmol/kg

## COc1ccc2c(c1)CCN(CCCCc1ccc(SC)cc1)C[C@@H]2O [(R)-NR2B-SMe]
σ1 receptor; read-out: σ1 Ki
  Ki: 88 nM
σ2 receptor; read-out: σ2 Ki
  Ki: 110 nM

## [11CH3]Oc1ccc2c(c1)CCN(CCCCc1ccccc1)C[C@@H]2O [(R)-^11C-Me-NB1]
[2]; [5]
  radioactivity concentration in cerebellum as % of that in cortex: 79%
  radioactivity concentration in cerebellum as % of that in hippocampus: 74%
  radioactivity concentration in cerebellum as % of that in striatum: 75%
  radioactivity concentration in cerebellum as % of that in thalamus: 83%

## Oc1ccc2c(c1)CCN(CCCCc1ccc([18F])cc1)C[C@@H]2O [(R)-^18F-PF-NB1]
[2]; [6]
  radioactivity in cerebellum as % of that in cortex: 85%
  radioactivity in cerebellum as % of that in hippocampus: 110%
  radioactivity in cerebellum as % of that in striatum: 95%
  radioactivity in cerebellum as % of that in thalamus: 92%

## O=C(OCCN1CCOCC1)C1(c2ccccc2)CCCCC1 [PRE-084]
GluN2B receptors [1]
  ED50 in rat whole brain in vivo ^11C-(−)-NR2B-Me: > 1000 nmol/kg

## COc1ccc(CCN2CCN(CCCc3ccccc3)CC2)cc1OC [SA4503]
GluN2B receptors [1]
  effect of pre-administration on whole rat brain radioactivity uptake of GluN2B radioligands: strong pre-blocking effects
  ED50 in rat whole brain in vivo ^11C-(+)-NR2B-Me: 41 nmol/kg
  ED50 in rat whole brain in vivo ^11C-(−)-NR2B-Me: 43 nmol/kg
σ1 receptor; reference radioligand ^3H-pentazocine, ref 38, 43, read-out: Ki for σ1
  Ki: 4.6 nM
σ1 receptor; reference radioligand ^3H-pentazocine, ref 41, 42, read-out: Ki for σ1
  Ki: 17.4 nM
σ2 receptor; reference radioligand ^3H-DTG, ref 38, 43, read-out: Ki for σ2
  Ki: 63 nM
σ2 receptor; reference radioligand ^3H-DTG, ref 41, 42, read-out: Ki for σ2
  Ki: 1780 nM

## OC12C3C4CC5C6C4C1C6C(C53)N2CCc1cccc(F)c1 (stereo not shown) [TC1]
GluN2B receptors [1]
  effect of pre-administration on whole rat brain radioactivity uptake of GluN2B radioligands: strong pre-blocking effects
  ED50 in rat whole brain in vivo ^11C-(+)-NR2B-Me: 64 nmol/kg
  ED50 in rat whole brain in vivo ^11C-(−)-NR2B-Me: 48 nmol/kg
σ1 receptor; reference radioligand ^3H-pentazocine, ref 40, read-out: Ki for σ1
  Ki: 10 nM
σ2 receptor; reference radioligand ^3H-DTG, ref 40, read-out: Ki for σ2
  Ki: 370 nM

## COc1ccc2c(c1)CCN(CCCCc1ccc([11CH3])cc1)CC2O (stereo not drawn) [^11C-(+)-NR2B-Me]
GluN2B receptors [3]
  BPND (SUVBL/SUVND−1), whole rat brain: 5
  non-displaceable binding (X-axis intercept of Lassen plots): about 0.42 SUV
  displacement from peak value at 90 min: 46%

## COc1ccc2c(c1)CCN(CCCCc1ccc([11CH3])cc1)CC2O (stereo not drawn) [^11C-(−)-NR2B-Me]
GluN2B receptors [3]
  BPND (SUVBL/SUVND−1), whole rat brain: 5
  non-displaceable binding (X-axis intercept of Lassen plots): about 0.42 SUV
  displacement from peak value at 90 min: 63%

## COc1ccc2c(c1)CCN(CCCCc1ccccc1[18F])C[C@@H]2O [^18F-(R)-OF-Me-NB1]
[4]
  SUVR relative to cerebellum, cortex: 1.37
  SUVR relative to cerebellum, hippocampus: 1.36
  SUVR relative to cerebellum, striatum: 1.30
  SUVR relative to cerebellum, thalamus: 1.33
[2]; [7]
  radioactivity in cerebellum as % of that in cortex: 73%
  radioactivity in cerebellum as % of that in hippocampus: 74%
  radioactivity in cerebellum as % of that in striatum: 77%
  radioactivity in cerebellum as % of that in thalamus: 75%

## (+)-SKF10047
σ1 receptor; reference radioligand ^3H-pentazocine, ref 48, read-out: Ki for σ1
  Ki: 48 nM
σ2 receptor; reference radioligand ^3H-DTG, ref 48, read-out: Ki for σ2
  Ki: 625 nM
